Assays:
[1] = target: integrase (Human immunodeficiency virus type 1 group M subtype B, UniProt P04585); assay: Integrase inhibition assay (microtiter plate strand transfer, substrate DNA/target DNA, anti-digoxigenin ELISA); type: biochemical; conditions: concentration of the compound at percent inhibition 50%; 30° C. for 1 hour; OD at 405 nm; read-out: IC50 (converted)
Procedure: The inhibitory activities against integrase of the compounds in the present invention have been determined by the assay described below.
(1) Preparation of DNA Solutions.
Substrate DNA and target DNA, which sequences were indicated below, were synthesized by Amersham Pharmacia Biotech and dissolved in KTE buffer (composition: 100 mM KCl, 1 mM EDTA, 10 mM Tris-HCl (pH 7.6)) at concentration of 2 pmol/μl and 0.5 pmol/μl, respectively. The DNA solutions were annealed with each complement by slowly cooling after heating.
(2) Calculations of the Percent Inhibitions (the IC50 Values of Test Compounds)
Streptavidin, obtained from Vector Laboratories, was dissolved in 0.1 M carbonate buffer (composition: 90 mM Na2CO3, 10 mM NaHCO3) at concentration of 40 µg/ml. After coating each well of microtiter plates (obtained from NUNC) with 50 μL of the above solution at 4° C. over night, each well was washed twice with PBS (composition: 13.7 mM NaCl, 0.27 mM KCl, 0.43 mM Na2HPO4, 0.14 mM KH2PO4) and blocked with 300 μl of 1% skim milk in PBS for 30 min. Additionally, each well was washed twice with PBS and added 50 μl of substrate DNA solution (0.04 pmol/μl) diluted to one fiftieth with NTE buffer (composition: 1M NaCl, 10 mM Tris-HCl (pH8.0), 1 mM EDTA). The microtiter plates were kept at room temperature for 30 min. Then, each well was washed twice with PBS and once with H2O.
Subsequently, in the each well prepared above were added 45 μl of the reaction buffer prepared from 12 μl of the buffer (composition: 150 mM MOPS (pH 7.2), 75 mM MnCl2, 50 mM 2-mercaptoethanol, 25% glycerol, 500 μg/ml bovine serum albumin-fraction V), 1 μl of target DNA (5 pmol/μl), and 32 μl of the distilled water. Additionally, 6 μl of either a test compound in DMSO or DMSO for positive control (PC) was mixed with the above reaction buffer, then 9 μl of an integrase solution (30 pmol) was added and mixed well. In the well of negative control (NC) was added 9 μl of the integrase dilution buffer (composition: Hepes (pH7.6), 400 mM potassium glutamate, 1 mM EDTA, 0.1% NP-40, 20% glycerol, 1 mM DTT, 4M urea).
The microtiter plates were incubated at 30° C. for 1 hour. The reaction solution was removed and each well was washed twice with PBS. Subsequently, each well of the microtiter plates was filled with 100 μl of anti-digoxigenin antibody labeled with alkaline phosphatase (Sheep Fab fragment: obtained from Boehringer) and incubated at 30° C. for 1 hour. Then, each well was washed twice with 0.05% Tween20 in PBS and once with PBS. Next, 150 μl of the Alkaline phosphatase reaction buffer (composition: 10 mM p-Nitrophenylphosphate (obtained from Vector Laboratories), 5 mM MgCl2, 100 mM NaCl, 100 mM Tris-HCl (pH 9.5)) was added in each well. The microtiter plates were incubated at 30° C. for 2 hours. The optical density (OD) at 405 nm of each well was measured and the percent inhibition was determined by the following expression. The percent inhibition (%)=100[1−{(C abs.−NC abs.)/(PC abs.−NC abs.)}] • C abs.; the OD of the well of the • NC abs.: the OD of the negative control (NC) • PC abs.: the OD of the positive control (PC)
When the percent inhibition (%) is X % at the concentration of x μg/ml and the percent inhibition (%) is Y % at the concentration of y μg/ml, one of which is more than 50% and the other is less than 50%, IC50 can be determined by the following expression. IC50(μg/ml)=x−{(X−50),(x−y)/(X−Y)}
Compound No. in the Table 1 is the same as compound No. of the above example.

| Structure (SMILES) | IC50 [1] | melting point |
| --- | --- | --- |
| CN1CC(C(=O)c2occc2Cc2ccc(F)cc2)=C(O)C1=O [Compound A-50, 4-[3-(4-Fluorobenzyl)furan-2-carbonyl]-3-hydroxy-1-methyl-1,5-dihydropyrrole-2-one] | 507 nM | 208 to 210 °C |
| CC(C)Oc1cc(F)ccc1Cc1ccc(C(=O)C2=C(O)C(=O)N(C)C2)o1 [Compound A-141-k, 4-[5-(4-Fluoro-2-isopropoxybenzyl)furan-2-carbonyl]-3-hydroxy-1-methyl-1,5-dihydropyrrole-2-one] | 1820 nM | 126 to 129 °C |
| COC(C)(C)c1cc(Cc2ccc(F)cc2)c(C(=O)C2=C(O)C(=O)N(C)C2)o1 [Compound A-158, 4-[3-(4-Fluorobenzyl)-5-(1-methoxy-1-methylethyl)furan-2-carbonyl]-3-hydroxy-1-methyl-1,5-dihydropyrrole-2-one] | 1730 nM | 144 to 145 °C |
| CN1CC(c2cc(CCc3ccccc3)ncn2)=C(O)C1=O [Compound B-6-a, 3-Hydroxy-1-methyl-4-(6-phenethylpyrimidine-4-yl)-1,5-dihydropyrrole-2-one] | 5420 nM | 211 to 213 °C |
| O=C1C(O)=C(c2cc(CCc3ccccc3)ncn2)CN1C1CCCCC1 [Compound B-6-d, 1-Cyclohexyl-3-hydroxy-4-(6-phenethylpyrimidine-4-yl)-1,5-dihydropyrrole-2-one] | 6600 nM | 248 to 250 °C |
| CN1CC(c2cc(OCc3ccccc3)ncn2)=C(O)C1=O [Compound B-12, 4-(6-Benzyloxypyrimidine-4-yl)-3-hydroxy-1-methyl-1,5-dihydropyrrole-2-one] | 975 nM | 203 to 204 °C |
| CN1CC(c2ccc(Cc3ccc(F)cc3)cn2)=C(O)C1=O [Compound B-29, 4-[5-(4-Fluorobenzyl)-pyridine-2-yl]-3-hydroxy-1-methyl-1,5-dihydropyrrole-2-one] | 402 nM | 204 to 206 °C |
| CN1CC(c2ncc(OCc3ccc(F)cc3)cn2)=C(O)C1=O [Compound B-68, 4-[5-(4-fluorobenzyloxy)pyrimidine-2-yl]-3-hydroxy-1-methyl-1,5-dihydropyrrole-2-one] | 698 nM | 185 to 187 °C |
| O=c1c(O)c(-c2ccccn2)oc2cccc(OCc3ccc(F)cc3)c12 [Compound C-22, 5-[(4-fluorobenzyl)oxy]-3-hydroxy(2-pyridine-2-yl)-4H-1-benzopyrane-4-one] | 1320 nM | 213 °C |
| Cn1ncnc1-c1oc2cccc(OCc3ccc(F)cc3)c2c(=O)c1O [Compound C-39, 5-[(4-fluorobenzyl)oxy]-3-hydroxy-2-(2-methyl-2H-[1,2,4]triazole-3-yl)-4H-1-benzopyrane-4-one] | 626 nM | 215 to 216 °C |
| O=c1c(O)c(-c2nnc(Cc3ccc(F)cc3)o2)[nH]c2ccccc12 [Compound D-5, 2-[5-(4-fluorobenzyl)-[1,3,4]oxadiazole-2-yl]-3-hydroxy-1H-quinoline-4-one] | 1330 nM | > 300 °C |
| O=C(c1ccc(Cc2ccc(F)cc2)o1)c1occc(=O)c1O [Compound E-8, 2-[5-(4-fluorobenzyl)furan-2-carbonyl]-3-hydroxypyrane-4-one] | 445 nM | 157 to 159 °C |
| Cc1cc(=O)c(O)c(C(=O)c2ccc(Cc3ccc(F)cc3)o2)o1 [Compound E-16, 2-[5-(4-fluorobenzyl)furan-2-carbonyl]-3-hydroxy-6-methylpyrane-4-one] | 366 nM | 173 to 175 °C |
| O=C1CCCC(C(=O)c2ccc(Cc3ccc(F)cc3)o2)=C1O [Compound F-4, 3-[5-(4-fluorobenzyl)furan-2-carbonyl]-2-hydroxy-2-cyclohexene-1-one] | 1810 nM | 133 to 134 °C |
| Cn1ccc(C(=O)c2ccc(Cc3ccc(F)cc3)o2)c(O)c1=O [Compound J-4, 4-[5-(4-fluorobenzyl)furan-2-carbonyl]-3-hydroxy-1-methyl-1H-pyridine-2-one] | 794 nM | 145 to 147 °C |
| Cn1ccc(-c2nnc(Cc3ccc(F)cc3)o2)c(O)c1=O [Compound K-4, 4-[5-(4-fluorobenzyl)-[1,3,4]oxadiazole-2-yl]-3-hydroxy-1-methyl-1H-pyridine-2-one] | 1890 nM | 216 to 218 °C |
| Cc1[nH]cc(C(=O)c2ccc(Cc3ccc(F)cc3)o2)c(=O)c1O [Compound M-6, 5-[5-(4-fluorobenzyl)furan-2-carbonyl]-3-hydroxy-2-methyl-1H-pyridine-4-one] | 8860 nM | 190 to 192 °C |

— US9572813B2, “Antiviral agent” (SHIONOGI & CO., LTD., priority 2001, dated 2017)
